Measurements: ChEMBL document CHEMBL4387741, “Optimization of novel reversible Bruton's tyrosine kinase inhibitors identified using Tethering-fragment-based screens” (Bioorg Med Chem, 2019)

What was measured:
[1] = target: Cyclin-dependent kinase 11B (Homo sapiens) (UniProt P21127); assay: Inhibition of wild-type human partial length CDC2L1 (P353 to G692 residues) expressed in bacterial expression system at 1 uM by Kinomescan method relative to control
[2] = target: Death-associated protein kinase 1 (Homo sapiens) (UniProt P53355); assay: Inhibition of wild-type human partial length DAPK1 (M1 to F296 residues) expressed in bacterial expression system at 1 uM by Kinomescan method relative to control
[3] = target: Serine/threonine-protein kinase/endoribonuclease IRE1 (Homo sapiens) (UniProt O75460); assay: Inhibition of wild-type human partial length ERN1 (S551 to E852 residues) expressed in mammalian expression system at 1 uM by Kinomescan method relative to control
[4] = target: Homeodomain-interacting protein kinase 3 (Homo sapiens) (UniProt Q9H422); assay: Inhibition of wild-type human partial length HIPK3 (M153 to N562 residues) expressed in mammalian expression system at 1 uM by Kinomescan method relative to control
[5] = target: MAP kinase-interacting serine/threonine-protein kinase 1 (Homo sapiens) (UniProt Q9BUB5); assay: Inhibition of wild-type human full length MKNK1 (M1 to L424 residues) expressed in mammalian expression system at 1 uM by Kinomescan method relative to control
[6] = target: Mitogen-activated protein kinase kinase kinase 7 (Homo sapiens) (UniProt O43318); assay: Inhibition of wild-type human partial length TAK1 (M1 to Q303 residues) expressed in mammalian expression system at 1 uM by Kinomescan method relative to control
[7] = target: Non-receptor tyrosine-protein kinase TNK1 (Homo sapiens) (UniProt Q13470); assay: Inhibition of wild-type human full length TNK1 (M1 to P661 residues) expressed in bacterial expression system at 1 uM by Kinomescan method relative to control
[8] = target: Serine/threonine-protein kinase 32B (Homo sapiens) (UniProt Q9NY57); assay: Inhibition of wild-type human full length YANK2 (M1 to S414 residues) expressed in bacterial expression system at 1 uM by Kinomescan method relative to control
[9] = target: Tyrosine-protein kinase ABL1 (Homo sapiens) (UniProt P00519); assay: Inhibition of wild-type human phosphorylated ABL1 (S229 to K512 residues) expressed in mammalian expression system at 10 uM by Kinomescan method relative to control
[10] = target: Cyclin-dependent kinase-like 5 (Homo sapiens) (UniProt O76039); assay: Inhibition of wild-type human partial length CDKL5 (M1 to S337 residues) expressed in mammalian expression system at 10 uM by Kinomescan method relative to control
[11] = target: Casein kinase I isoform delta (Homo sapiens) (UniProt P48730); assay: Inhibition of wild-type human full length CSNK1D (M1 to K409 residues) expressed in bacterial expression system at 10 uM by Kinomescan method relative to control
[12] = target: Casein kinase I isoform gamma-2 (Homo sapiens) (UniProt P78368); assay: Inhibition of wild-type human full length CSNK1G2 (M1 to K415 residues) expressed in bacterial expression system at 10 uM by Kinomescan method relative to control
[13] = target: Casein kinase II subunit alpha' (Homo sapiens) (UniProt P19784); assay: Inhibition of wild-type human full length CSNK2A2 (M1 to R350 residues) expressed in mammalian expression system at 10 uM by Kinomescan method relative to control
[14] = target: Epidermal growth factor receptor (Homo sapiens) (UniProt P00533); assay: Inhibition of wild-type human partial length EGFR (R669 to V1011 residues) expressed in bacterial expression system at 10 uM by Kinomescan method relative to control
[15] = target: Mitogen-activated protein kinase 15 (Homo sapiens) (UniProt Q8TD08); assay: Inhibition of wild-type human partial length ERK8 (M1 to P437 residues) expressed in bacterial expression system at 10 uM by Kinomescan method relative to control
[16] = target: Tyrosine-protein kinase Fyn (Homo sapiens) (UniProt P06241); assay: Inhibition of wild-type human partial length FYN (T243 to L534 residues) expressed in bacterial expression system at 10 uM by Kinomescan method relative to control
[17] = target: LIM domain kinase 1 (Homo sapiens) (UniProt P53667); assay: Inhibition of wild-type human full length LIMK1 (M1 to D647 residues) expressed in bacterial expression system at 10 uM by Kinomescan method relative to control
[18] = target: Serine/threonine-protein kinase 10 (Homo sapiens) (UniProt O94804); assay: Inhibition of wild-type human partial length LOK (E16 to V314 residues) expressed in bacterial expression system at 10 uM by Kinomescan method relative to control
[19] = target: Mitogen-activated protein kinase kinase kinase kinase 2 (Homo sapiens) (UniProt Q12851); assay: Inhibition of wild-type human partial length MAP4K2 (M1 to G318 residues) expressed in mammalian expression system at 10 uM by Kinomescan method relative to control
[20] = target: Serine/threonine-protein kinase NLK (Homo sapiens) (UniProt Q9UBE8); assay: Inhibition of wild-type human full length NLK (M13 to E527 residues) expressed in bacterial expression system at 10 uM by Kinomescan method relative to control
[21] = target: Mitogen-activated protein kinase 12 (Homo sapiens) (UniProt P53778); assay: Inhibition of wild-type human full length p38-gamma (M1 to L367 residues) expressed in mammalian expression system at 10 uM by Kinomescan method relative to control
[22] = target: cGMP-dependent protein kinase 2 (Homo sapiens) (UniProt Q13237); assay: Inhibition of wild-type human partial length PRKG2 (S422 to F762 residues) expressed in mammalian expression system at 10 uM by Kinomescan method relative to control
[23] = target: Interferon-induced, double-stranded RNA-activated protein kinase (Homo sapiens) (UniProt P19525); assay: Inhibition of wild-type human partial length PRKR (F247 to C551 residues) expressed in bacterial expression system at 10 uM by Kinomescan method relative to control
[24] = target: Proto-oncogene tyrosine-protein kinase ROS (Homo sapiens) (UniProt P08922); assay: Inhibition of wild-type human partial length ROS1 (A1921 to N2240 residues) expressed in bacterial expression system at 10 uM by Kinomescan method relative to control
[25] = target: NUAK family SNF1-like kinase 2 (Homo sapiens) (UniProt Q9H093); assay: Inhibition of wild-type human partial length SNARK (P22 to A333 residues) expressed in mammalian expression system at 10 uM by Kinomescan method relative to control
[26] = target: Serine/threonine-protein kinase tousled-like 2 (Homo sapiens) (UniProt Q86UE8); assay: Inhibition of wild-type human partial length TLK2 (E424 to N749 residues) expressed in bacterial expression system at 10 uM by Kinomescan method relative to control
[27] = target: Vascular endothelial growth factor receptor 2 (Homo sapiens) (UniProt P35968); assay: Inhibition of wild-type human partial length VEGFR2 (R787 to P1253 residues) expressed in mammalian expression system at 10 uM by Kinomescan method relative to control

O=C(Nc1cccc([C@@H]2CN(c3ncnc4[nH]ccc34)CCN2CCO)c1)Nc1c(F)cccc1N1CCCC1 showed an inhibition [1] of 100%, an inhibition [2] of 5.3% and an inhibition [3] of 56%. It also gave an inhibition [4] of 86%, an inhibition [5] of 88% and an inhibition [6] of 97%. For the same molecule, the inhibition [7] was 65% and the inhibition [8] was 100%.

O=C(Nc1cccc([C@H]2CCCN(c3ncnc4[nH]ccc34)C2)c1)Nc1ccccc1N1CCCC1 was tested, and the inhibition [9] was 43%, the inhibition [10] was 96% and the inhibition [11] was 100%. The inhibition [12] was 100%, the inhibition [13] was 91% and the inhibition [14] was 88%. The inhibition [15] was 99%, the inhibition [16] was 67% and the inhibition [17] was 97%. The inhibition [18] was 0.45%, the inhibition [19] was 61% and the inhibition [20] was 96%. It also gave an inhibition [21] of 68%, an inhibition [22] of 54% and an inhibition [23] of 87%. It also gave an inhibition [24] of 72%, an inhibition [25] of 6.6% and an inhibition [26] of 89%. For the same molecule, the inhibition [27] was 3.5%.
